Reference: paper PMC10780910, “Opioid/Dopamine Receptor Binding Studies, NMR and Molecular Dynamics Simulation of LENART01 Chimera, an Opioid-Bombesin-like Peptide” (Molecules, 2024)

How the values were obtained:
[1] = test system: opioid and dopamine receptors; assay: Functional [35S]GTPγS binding, brain membrane; type: biochemical, rat (Wistar); details: for Emax ± S.E.M., ligand alone: Tris-EGTA pH 7.4, 0.05 nM [35S]GTPγS; for Emax ± S.E.M., Ligand + Cyprodime: opioid system, + cyprodime (selective MOR antagonist), *** p < 0.001 vs ligand alone (unpaired t-test); for Emax ± S.E.M., Ligand + Risperidone: + risperidone (selective D2R antagonist), *** p < 0.001 vs ligand alone
Method: (§1) Both male and female Wistar rats were used for membrane preparations (brains and spinal cords). Animals were housed at 22 ± 0.5 °C with a 12:12 h light–dark cycle. Food and water were available ad libitum. All animal manipulations were carried out according to the European Communities Council Directives ([…]) and the Hungarian Act for the Protection of Animals in Research (XXVIII.tv. 32.§).
(§2) The functional [^35S]GTPγS binding experiments were performed as previously described. In brief, the brain and spinal cord homogenates were incubated at 30 °C for 60 min in Tris-EGTA buffer (pH 7.4) containing [^35S]GTPγS (0.05 nM) and in the presence of varying concentrations of the ligand. Non-specific binding was determined in the presence of non-radiolabeled 10 μM GTPγS. The reaction was stopped by rapid filtration under vacuum (Brandel M24R Cell Harvester), and the samples were washed with cold Tris-HCl buffer. The radioactivity of the dried filters was determined by scintillation counting.

[2] = test system: opioid and dopamine receptors; assay: Functional [35S]GTPγS binding, spinal cord membrane; type: biochemical, rat (Wistar); details: for Emax ± S.E.M., ligand alone / Emax ± S.E.M., Ligand + Cyprodime / Emax / Emax ± S.E.M., Ligand + Risperidone: rat spinal cord membrane, 30 °C, 60 min; for Emax ± S.E.M., ligand alone: Tris-EGTA pH 7.4, 0.05 nM [35S]GTPγS; for Emax ± S.E.M., Ligand + Cyprodime: opioid system, + cyprodime (selective MOR antagonist); for Emax ± S.E.M., Ligand + Cyprodime / Emax / Emax ± S.E.M., Ligand + Risperidone: pH 7.4; for Emax ± S.E.M., Ligand + Cyprodime / Emax ± S.E.M., Ligand + Risperidone: *** p < 0.001 vs ligand alone; for Emax / Emax ± S.E.M., Ligand + Risperidone: dopaminergic system; for Emax: + SCH-39166 (selective D1R antagonist), ns vs ligand alone, read-out: Emax ± S.E.M., Ligand + SCH-39166; for Emax ± S.E.M., Ligand + Risperidone: + risperidone (selective D2R antagonist)
Method: as §1, §2

MOR = assay: Competitive [3H]DAMGO binding (MOR); set-up: species or system rat (Wistar); details: receptor binding assay, rat brain and spinal cord homogenates
Description: (§3) The chimeric peptide LENART01 was examined in [^3H]DAMGO, [^3H]SCH−23390 and [^3H]Spiperone homolog displacement in rat brains and spinal cord homogenates. The binding affinity of the hybrid and its intrinsic activity value were compared with dermorphin and ranatensin, its structural components.
(§4) Figure 3 Binding affinity of LENART01 at MOR (A,B), D1R (C,D) and D2R (E,F) receptors, respectively, using [^3H]DAMGO and [^3H]SCH−23390 and [^3H]Spiperone as radioligands. Results represent mean ± SEM of 3 independent experiments, each performed in duplicate.
as §1
(§5) Competitive analysis of the chimera activity was performed in the presence of naloxone (in case of MOR displacement studies) or SCH-23390 (for D1R) and spiperone (for D2R). […] The radioactivity of the dried filters was detected using an UltimaGold^TM MV aqueous scintillation cocktail with a Packard Tricarb 2300TR liquid scintillation counter. […]

E. coli strains = details: different E. coli strains; cited from earlier work
Description: (§6) Noteworthily, the N-terminal pharmacophore of LENART01 consists of dermorphin with an amino acid sequence of YdAFGYPS. At the same time, the C-terminus was constructed from ranatensin, which was additionally heavily modified, resulting in a sequence of GHFM.

D2R = assay: Competitive [3H]Spiperone binding (D2R); set-up: species or system rat (Wistar); details: rat brain and spinal cord homogenates
Description: as §3, §4, §1, §5

dopaminergic receptors = details: ref Zhu et al. 10; cited from earlier work
[3] = test system: dopamine D2 receptor (D2R); details: cited from earlier work
Description: as §6

[4] = rat brain membrane, 30 °C, 60 min
[5] = rat brain membrane, 30 °C, 60 min, pH 7.4
[6] = rat brain membrane, dopaminergic system, 30 °C, 60 min, pH 7.4

| Substance | Emax ± S.E.M., ligand alone [1, 4] [%] | Emax ± S.E.M., Ligand + Cyprodime [1, 5] | Emax ± S.E.M., ligand alone [2] [%] | Emax ± S.E.M., Ligand + Cyprodime [2] | Emax ([1]; rat brain membrane, dopaminergic system, + SCH-39166 (selective D1R antagonist), 30 °C, 60 min, pH 7.4, ns for chimera, *** p < 0.001 for ranatensin, read-out: Emax ± S.E.M., Ligand + SCH-39166) [%] | Emax ± S.E.M., Ligand + Risperidone [1, 6] | dose-dependent increases in functional binding vs dermorphin ([1]; rat brain membranes, [35S]GTPγS) | effect of SCH−39166 on efficacy ([1]; selective D1R antagonist SCH−39166, tissue not specified) | effect of risperidone on stimulation ([1]; selective D2R antagonist risperidone, tissue not specified) | effect of cyprodime on efficacy ([1]; selective MOR antagonist cyprodime, tissue not specified) | binding to MOR (MOR) | antimicrobial activity (E. coli strains) | selectivity to D2R compared to D1R (D2R; [3H]Spiperone (D2R) vs [3H]SCH-23390 (D1R), Tris-HCl pH 7.4, 3 independent experiments in duplicate) | binding to dopamine receptors (D2R; receptor binding assay in vitro, abstract statement) | Emax [2] [%] | Emax ± S.E.M., Ligand + Risperidone [2] | maximal stimulation vs dermorphin ([2]; spinal cord membrane, [35S]GTPγS) | analgesia and naloxone antagonism (dopaminergic receptors) | Emax ± S.E.M., Ligand + SCH-39166 ([1]; rat brain membrane, dopaminergic system, + SCH-39166 (selective D1R antagonist), 30 °C, 60 min, pH 7.4, ns for chimera, *** p < 0.001 for ranatensin) | interaction with D2R [3] |
| --- | --- | --- | --- | --- | --- | --- | --- | --- | --- | --- | --- | --- | --- | --- | --- | --- | --- | --- | --- | --- |
| YdAFGYPS [dermorphin, reference compound] | 140.5 ± 2.9 | 100.0 ± 1.1 *** % | 140.0 ± 1.8 | 100.4 ± 0.9 *** % | – | – | – | – | – | – | – | – | – | – | – | – | – | – | – | – |
| YdAFGYPSGHFM [LENART01] | 140.6 ± 1.0 | 100.4 ± 1.4 *** % | 136.3 ± 2.2 | 100.8 ± 1.1 *** % | 140.8 ± 0.8 | 101.1 ± 0.7 *** % | equal to the increases in dermorphin | did not significantly reverse the efficacy | brought down the stimulation of LENART01 to basal activity | reversed the efficacy | bound to mu-opioid and dopamine receptors | antimicrobial activity against different E. coli strains | high selectivity to D2R compared to D1R | bound to mu-opioid and dopamine receptors | 136 ± 1.7 | 101.6 ± 1.2 *** % | less than that of dermorphin | – | – | – |
| ranatensin [reference compound] | 124.1 ± 1.9 | – | 119.8 ± 1.3 | – | – | 101.5 ± 1.7 *** % | – | – | – | – | did not bind to MOR | – | – | – | 117.4 ± 1.1 | 100.0 ± 0.7 *** % | – | naloxone failed to antagonize the pain-relieving effect | 119.1 ± 0.8 *** % | known to interact with |
